This is an account of results in patent publication US20100028892A1, “YEAST BASED EXPRESSION OF PROTEASES AND METHODS OF USE” (Burnham Institute for Medical Research, priority 2008, published 2010).

Experiment [1] relates to Caspases. Description: validation of 384 well yeast-based Caspase-dependent lacZ reporter gene assays with pharmacological inhibitors. The format is cell-based, human. Particulars: 384 well yeast-based Caspase-dependent reporter gene assay. The text has this: When converting the yeast-based protease reporter system to HTS assay, conditions from agar plates to liquid medium in microtiter wells must be revised. This revision comprises, utilizing the measured β-galactosidase produced by yeast carrying the Caspase-cleavable reporter proteins, and assaying the colorimetric product (OD620nm) derived from X-gal substrate in 384 well plates, as a measure of the lacZ reporter gene activity. We compared β-galactosidase activity produced in the presence or absence of the broad-spectrum caspase inhibitory compound, zVAD-fmk ([…]-Valinyl-Alaninyl-Aspartyl-fluoromethylketone). Among the variables that were initially interrogated were initial seeding cell density, time of culture, concentration of X-gal substrate, and supporting carbohydrate (raffinose vs mannose). Note that it was determined that it is not advisible to employ glucose in yeast media because it represses the GAL1 promoter used in some plasmids. An example of data obtained using the plural-component system of Fas/FADD/Caspase-8 is presented. All variables tested altered the signal:noise ratio of the assay. […] For the two-component system of ASC/Caspase-1 and for the plural-component system of NALP1ΔLRR/ASC/Caspase-1, the same conditions were optimal, among those tested (not shown). For the Fas/Fadd/Caspase 8, the caspase and adaptor protein (Fadd) were expressed at relatively small amounts (a weak promoter and low copy number plasmid are used) and the upstream activator (Fas) was expressed in a large amount.
The 384 well assay format was further validated, using zVAD-fmk, a peptidyl inhibitor with broad-spectrum activity against animal Caspases. […]
The validation results of a yeast-based Caspase assay using a pharmacological inhibitor of Caspases are shown in FIG. 11 consisting of FIGS. 11A-C (A) Caspase-1, single-component assay. […] For (A-C), relative absorbance at 620 nm was measured (mean ±std dev; n=3-5 independent experiments). […]
Assays were performed in a total volume of […] in triplicate. […] Absorbance at 620 nm was measured 2-3 days after culture at 30° C.
(A reporter such as luciferase makes a cellular process visible.)

For experiment [2], the target named is T1, Fas/FADD/Caspase-8 (Homo sapiens, UniProt P25445+Q13158+Q14790).
T1 construct: a small amount of each full-length Caspase construct was expressed with a large amount of adaptor protein FADD; HA (C); expressed in transfected cells; host or cells: Saccharomyces cerevisiae EGY48
T1 sequence (Q14790 whole entry): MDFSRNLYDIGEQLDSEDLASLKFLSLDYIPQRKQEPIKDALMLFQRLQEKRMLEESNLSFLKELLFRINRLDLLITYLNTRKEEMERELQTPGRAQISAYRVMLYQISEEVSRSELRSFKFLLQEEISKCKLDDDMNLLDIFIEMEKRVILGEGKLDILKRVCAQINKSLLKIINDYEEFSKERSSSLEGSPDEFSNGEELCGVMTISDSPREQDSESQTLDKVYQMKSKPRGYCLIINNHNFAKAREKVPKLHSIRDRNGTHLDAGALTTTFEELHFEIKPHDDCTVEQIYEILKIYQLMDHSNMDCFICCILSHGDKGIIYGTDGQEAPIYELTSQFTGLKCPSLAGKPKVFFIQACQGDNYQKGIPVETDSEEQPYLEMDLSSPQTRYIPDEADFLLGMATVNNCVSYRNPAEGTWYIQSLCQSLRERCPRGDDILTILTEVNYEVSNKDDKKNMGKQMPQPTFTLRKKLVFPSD
T1 sequence (Q13158 whole entry): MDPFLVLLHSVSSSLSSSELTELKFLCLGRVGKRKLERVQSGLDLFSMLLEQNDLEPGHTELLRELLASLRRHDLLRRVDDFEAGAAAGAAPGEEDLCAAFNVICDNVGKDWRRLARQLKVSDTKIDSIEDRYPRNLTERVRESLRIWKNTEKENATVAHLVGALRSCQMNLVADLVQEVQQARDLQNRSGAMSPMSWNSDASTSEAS
T1 sequence (P25445 26-335): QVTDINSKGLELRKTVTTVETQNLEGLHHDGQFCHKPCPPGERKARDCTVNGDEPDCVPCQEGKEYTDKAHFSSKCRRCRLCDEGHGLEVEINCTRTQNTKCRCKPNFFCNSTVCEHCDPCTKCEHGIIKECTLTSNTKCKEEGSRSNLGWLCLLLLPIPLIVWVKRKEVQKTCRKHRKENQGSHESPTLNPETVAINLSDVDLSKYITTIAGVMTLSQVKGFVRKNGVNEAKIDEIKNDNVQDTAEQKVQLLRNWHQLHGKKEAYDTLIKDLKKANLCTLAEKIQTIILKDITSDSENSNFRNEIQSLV
Description: yeast Fas/FADD/Caspase-8 HTS assay with counter-screen strains (lacZ, Asc/Caspase-1, empty vector). The experiment is classed as cell-based. The following applies: 384 well, OD620, 2-4 days at 30° C., versus lacZ, Asc/Caspase-1 and empty vector strains. The protocol: The results of a HTS of a yeast-based NALP1 inflammasome assay are shown in FIG. 12 consisting of FIGS. 12A-G (A) NALP1 yeast screen controls. Yeast cells containing ASC/Nalp1ΔLRR/Caspase1 were plated at 1.88×10^5 cells/well in a 384 well plate in media containing 1% galactose/2% raffinose, with (squares) or without (diamonds) 400 μg/ml X-gal substrate. The plates were incubated for 72 hrs at 30° C. and the plates were read at OD620. (B) Yeast Screen of LOPAC compound library plate 4 for NALP1. Yeast cells containing ASC/NALP1/Caspase1 were plated at 1.88×10^5 cells/well in a 384 well plate in media containing 1% galactose, 2% raffinose, with or without 400 μg/ml X-gal. The plates were incubated for 72 hrs at 30° C. and the plates were read at OD620. The compounds were screened at 100 μM and “hits” were defined by >50% reduction (as shown). (C) Validation of HTS assay for Fas-FADD-Caspase-8 system. Yeast cells containing Fas/FADD/Caspase-8 were cultured in 384 well plates as above with (blue squares) or without (purple diamonds) Xgal substrate, the plates were incubated for 72 hrs at 30° C. and analyzed as above. (D) Example of library screening plate for Fas-FADD-Caspase-8. […] Plates were incubated for 48 hrs at 30° C. and OD620 values recorded. […] Data represent relative fluorescence units (RFU) assessed in the absence or presence of various concentrations of compound (CID-2531). […]
On the technique in general: Counterscreens check selectivity or assay interference.

Experiment [3] deals with Caspase-8 (Homo sapiens, UniProt Q14790). Description: in vitro biochemical assay with purified recombinant Caspase-8 and fluorigenic substrate Ac-IETD-AFC. Particulars: purified recombinant Caspase-8, Ac-IETD-AFC, various concentrations of compound. The protocol: The results of a HTS of a yeast-based NALP1 inflammasome assay are shown in FIG. 12 consisting of FIGS. 12A-G (A) NALP1 yeast screen controls. Yeast cells containing ASC/Nalp1ΔLRR/Caspase1 were plated at 1.88×10^5 cells/well in a 384 well plate in media containing 1% galactose/2% raffinose, with (squares) or without (diamonds) 400 μg/ml X-gal substrate. The plates were incubated for 72 hrs at 30° C. and the plates were read at OD620. (B) Yeast Screen of LOPAC compound library plate 4 for NALP1. Yeast cells containing ASC/NALP1/Caspase1 were plated at 1.88×10^5 cells/well in a 384 well plate in media containing 1% galactose, 2% raffinose, with or without 400 μg/ml X-gal. The plates were incubated for 72 hrs at 30° C. and the plates were read at OD620. The compounds were screened at 100 μM and “hits” were defined by >50% reduction (as shown). (C) Validation of HTS assay for Fas-FADD-Caspase-8 system. Yeast cells containing Fas/FADD/Caspase-8 were cultured in 384 well plates as above with (blue squares) or without (purple diamonds) Xgal substrate, the plates were incubated for 72 hrs at 30° C. and analyzed as above. (D) Example of library screening plate for Fas-FADD-Caspase-8. […] Plates were incubated for 48 hrs at 30° C. and OD620 values recorded. […] Data represent relative fluorescence units (RFU) assessed in the absence or presence of various concentrations of compound (CID-2531).
Caspase-8, sequence (Q14790 217-479): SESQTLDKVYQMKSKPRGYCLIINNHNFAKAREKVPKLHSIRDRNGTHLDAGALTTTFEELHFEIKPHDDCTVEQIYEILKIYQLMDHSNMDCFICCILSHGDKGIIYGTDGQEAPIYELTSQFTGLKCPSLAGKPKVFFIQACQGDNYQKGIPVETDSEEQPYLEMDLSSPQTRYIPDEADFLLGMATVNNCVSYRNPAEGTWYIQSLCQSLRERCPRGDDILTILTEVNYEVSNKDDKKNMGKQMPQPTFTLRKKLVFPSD

Molecules are shown by their SMILES.

Consider `CCCC[C@@H](C=O)NC(=O)[C@H](CC(C)C)NC(=O)OCc1ccccc1` [Calpain inhibitor, calpeptin], for which the “effect on β-galactosidase activity / activation of the lacZ reporter gene” value in experiment [1] is listed as “did not suppress activation of the lacZ reporter gene”.
On to `C[n+]1cc2c3c(ccc2c2ccc4cc5c(cc4c21)OCO5)OCO3` [CID-5154], for which, in experiment [2], the “selective inhibition of Fas-FADD-Caspase-8” value is “evidence of selective inhibition”.
`c1ccc2c(c1)[I+]c1ccccc1-2` [CID-3101]: in experiment [2], the “selective inhibition of Fas-FADD-Caspase-8” value is “evidence of selective inhibition”.
Consider `Clc1ccc(C(c2ccc(Cl)cc2)n2cc[n+](CC(OCc3ccc(Cl)cc3Cl)c3ccc(Cl)cc3Cl)c2)cc1` (stereo not shown) [CID-2531], for which, in experiment [3], the “inhibition of Caspase-8 (relative fluorescence units)” value is “evidence of inhibition of Caspase-8”.
